ChEMBL document CHEMBL1201862, “PubChem BioAssay data set” (2004)
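Interpolation was linear, between the two tested concentrations surrounding the appropriate level; five concentrations were tested over 48 hours in 96-well plates. Abbreviation: GI50, concentration required for 50% inhibition of growth.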 Activity calls are given as the source filed them. Cut-off read from the data, not from the text of the source: active = GI50 up to about 1.1 µM and inactive = higher.

Legend:
Assay in all cases: NCI-60 cell line screen, 48 h
786-0 = system: 786-0
COLO 205 = system: COLO 205
HL-60 = system: HL-60
K562 = system: K562
MOLT-4 = system: MOLT-4
Malme-3M = system: Malme-3M
OVCAR-3 = system: OVCAR-3
SW-620 = system: SW-620
TK-10 = system: TK-10
U-251 = system: U-251
UACC-257 = system: UACC-257
HOP-62 = system: HOP-62
HT-29 = system: HT-29
SK-MEL-5 = system: SK-MEL-5

Measured: GI50

O=C(NC1CCCCC1)NS(=O)(=O)c1ccc2c(c1)CCC2 [GLYHEXAMIDE]
inactive: 786-0 > 100 µM | COLO 205 > 100 µM | HL-60 > 100 µM | K562 > 100 µM | MOLT-4 > 100 µM | Malme-3M > 100 µM | OVCAR-3 > 100 µM | SW-620 > 100 µM | TK-10 > 100 µM | U-251 > 100 µM | UACC-257 > 100 µM

O=S(O)CCCSSCCCCSSCCCS(=O)O
inactive: 786-0 > 100 µM | COLO 205 > 100 µM | HOP-62 > 100 µM | HT-29 > 100 µM | K562 > 100 µM | MOLT-4 26.7 µM | Malme-3M > 100 µM | OVCAR-3 > 100 µM | SK-MEL-5 > 100 µM | SW-620 > 100 µM | TK-10 > 100 µM | U-251 > 100 µM | UACC-257 > 100 µM

O=c1/c(=C/c2ccc3c(c2)OCO3)sc2nnc(Cc3ccccc3)n12
inactive: 786-0 > 100 µM | COLO 205 > 100 µM | HL-60 > 100 µM | HOP-62 > 100 µM | K562 > 100 µM | MOLT-4 > 100 µM | Malme-3M > 100 µM | OVCAR-3 > 100 µM | SK-MEL-5 > 100 µM | SW-620 > 100 µM | TK-10 > 100 µM | U-251 > 100 µM | UACC-257 13.1 µM

CCOc1ccc(N2C(=O)C3c4[nH]c5ccccc5c4C4CCC(C(C)(C)C)CC4C3C2=O)cc1 (centres undefined)
inactive: 786-0 50.6 µM | COLO 205 36.1 µM | HL-60 44.9 µM | HOP-62 > 100 µM | HT-29 32.1 µM | K562 > 100 µM | MOLT-4 > 100 µM | Malme-3M > 100 µM | SK-MEL-5 > 100 µM | SW-620 > 100 µM | U-251 > 100 µM | UACC-257 > 100 µM

CCCCCCCCCCCCC(SCCNC(=O)CCNC(=O)C(O)C(C)(C)COP(=O)(O)OP(=O)(O)OCC1OC(n2cnc3c(N)ncnc32)C(O)C1OP(=O)(O)O)C(=O)NCC(N)=O (centres undefined)
inactive: 786-0 > 100 µM | COLO 205 49.2 µM | HL-60 72.9 µM | HOP-62 > 100 µM | HT-29 > 100 µM | Malme-3M > 100 µM | OVCAR-3 > 100 µM | SK-MEL-5 > 100 µM | SW-620 > 100 µM | TK-10 > 100 µM | U-251 34.9 µM | UACC-257 > 100 µM

O=C1C[C@@H]2C(COC(=O)c3ccccc3)N(OCc3ccccc3)C[C@@H]2O1 (some centres undefined)
inactive: 786-0 > 100 µM | COLO 205 > 100 µM | HL-60 > 100 µM | HOP-62 > 100 µM | HT-29 > 100 µM | K562 > 100 µM | MOLT-4 > 100 µM | Malme-3M > 100 µM | OVCAR-3 > 100 µM | SK-MEL-5 > 100 µM | SW-620 > 100 µM | TK-10 > 100 µM | U-251 > 100 µM | UACC-257 > 100 µM

C1=NN(Cc2ccccc2)C(N(Cc2ccccc2)Cc2ccccc2)N1 (centres undefined)
inactive: 786-0 17.8 µM | COLO 205 16.9 µM | HL-60 4.91 µM | HOP-62 18.2 µM | HT-29 15.2 µM | K562 8.91 µM | MOLT-4 15.2 µM | Malme-3M 12.2 µM | OVCAR-3 14 µM | SK-MEL-5 14.2 µM | SW-620 20.6 µM | TK-10 29.3 µM | U-251 16.7 µM | UACC-257 16.7 µM

Oc1ccc2c(c1)CC[N+]1=C2CCC2CCCC21 (centres undefined) [QUINDONIUM BROMIDE]
inactive: 786-0 > 100 µM | COLO 205 > 100 µM | HT-29 > 100 µM | OVCAR-3 > 100 µM | SK-MEL-5 > 100 µM | SW-620 > 100 µM | TK-10 > 100 µM

N#CCCN(CCC#N)c1ccc(/C=N\c2nc(-c3ccccc3)cs2)cc1
inactive: 786-0 > 100 µM | COLO 205 > 100 µM | HL-60 > 100 µM | HOP-62 84.3 µM | HT-29 > 100 µM | K562 > 100 µM | MOLT-4 > 100 µM | Malme-3M > 100 µM | OVCAR-3 > 100 µM | SK-MEL-5 > 100 µM | SW-620 > 100 µM | TK-10 81.7 µM | UACC-257 > 100 µM

O=C(N/N=C1/C(=O)N(c2ccc(Cl)cc2Cl)C(=O)C(=O)C1c1nc2ccccc2o1)c1ccccc1O (centres undefined)
inactive: 786-0 51.6 µM | COLO 205 52.7 µM | HOP-62 28.7 µM | HT-29 60.7 µM | K562 47 µM | MOLT-4 34.7 µM | Malme-3M 27.3 µM | OVCAR-3 21.8 µM | SK-MEL-5 19 µM | SW-620 47.9 µM | TK-10 38.9 µM | U-251 > 10 µM

COC(=O)C1(C)C=C(Nc2ccccc2)C(=O)N1c1ccccc1 (centres undefined)
inactive: 786-0 > 100 µM | HL-60 > 100 µM | HOP-62 > 100 µM | HT-29 > 100 µM | K562 > 100 µM | MOLT-4 > 100 µM | Malme-3M > 100 µM | OVCAR-3 > 100 µM | SK-MEL-5 > 100 µM | SW-620 > 100 µM | TK-10 > 100 µM | U-251 > 100 µM | UACC-257 > 100 µM
